Laboratory results reported in patent US9283224B2, “Substituted pyrimidinyl-pyrroles active as kinase inhibitors” (NERVIANO MEDICAL SCIENCES S.R.L., priority 2012, dated 2016).
Read-outs that look alike come from different tables or passages of the source.

Experiments:
[1] = tested on: JAK2 independent human chronic myelogenous leukaemia cell line K562; experiment: Cell proliferation assay (CellTiter-Glo, 72 hours), K562; assay type: cell-based; conditions: K562 cells, read-out: K-562 IC50
Method: (§1) the JAK2 dependent human megakaryoblastic leukemia cell line SET-2 (DSMZ, Braunschweig GERMANY), and JAK2 independent human chronic myelogenous leukaemia cell line K562 (ECACC, Wiltshire, UK) were cultured in RPMI-1640 medium-Glutamax (Gibco BRL, Gaithesburg, Md., USA), supplemented with 10% fetal bovine serum (FBS) at 37° C. and 5% CO2.
(§2) Approximately 5×10^3 cells were plated into 384 microtiter plate wells in 50 μL of growth media with different concentrations of inhibitors. The cells were incubated at 37° C. and 5% CO2 for 72 hours, than the plates were processed using CellTiter-Glo assay (Promega, Madison, Wis., USA) following the manufacturer's instruction. Briefly 25 μL/well reagent solution are added to each wells and after 5 minutes shacking micro-plates are read by Envision luminometer (PerkinElmer, Waltham, Mass., USA).
(§3) Data are analyzed by Symix Assay Explorer software (Symix Technologies Inc.) that provides sigmoidal fitting algorithm of the 8 points dilutions curves for […] determination.

[2] = tested on: JAK2 dependent human megakaryoblastic leukemia cell line SET-2; experiment: Cell proliferation assay (CellTiter-Glo, 72 hours), SET-2; assay type: cell-based; conditions: for IC50: Homo sapiens, read-out: SET-2 IC50; for Ratio K-562 (IC50)/SET-2 (IC50): selectivity for JAK2 dependent SET-2 vs JAK2 independent K-562 cell line
Method: as §1, §2, §3

JAK2 kinase domain = molecular target: T1, JAK2 kinase domain (Homo sapiens, UniProt O60674); experiment: Biochemical assay for inhibitors of JAK2 kinase activity (33P-γ-ATP, dowex resin); conditions: 1 nM enzyme, 60 μM ATP, 60 minutes at room temperature
T1 construct: commercially available JAK2 kinase domain (Invitrogen, Eugene, Oreg.); purchased Invitrogen, Eugene, Oreg
Method: Specific JAK2, JAK1 or JAK3 peptide substrates are trans-phosphorylated by JAK kinases in the presence of ATP traced with 33P-γ-ATP. At the end of the phosphorylation reaction, the unreacted ATP, cold and radioactive, is captured by an excess of dowex ion exchange resin that eventually settles by gravity to the bottom of the reaction plate. The supernatant is subsequently withdrawn and transferred into a counting plate that is then evaluated by β-counting.
500 g of wet resin (SIGMA, custom prepared resin DOWEX 1×8 200-400 mesh, 2.5 Kg) is weighed out and diluted 2 to 1 in 150 mM sodium formate, pH 3.00. The resin is allowed to settle overnight and then the supernatant is discarded. After three washes as above over a couple of days, the resin is allowed to settle and two volumes (with respect to the resin volume) of 150 mM sodium formate buffer are added.
Kinase buffer was composed of 50 mM HEPES pH 7.5 containing 10 mM MgCl2, 2.5 mM DTT, 10 μM Na3VO4 and 0.2 mg/mL BSA.
The peptidic substrate was purchased from American Peptide Company (Sunnyvale, Calif.).
An automated station for serial dilutions (Biomek FX, Beckman) is used for producing 1:3 dilutions in 100% DMSO, from line A1 to A10, and for all the compounds in the column.
At the start of the run, the robot aspirates 5 μL of ATP mix, makes an air gap inside the tips (3 μl) and aspirates 5 μL of JAK2 mix. The following dispensation into the plates plus 3 cycles of mixing, done by the robot itself, starts the kinase reaction. At this point, the correct concentrations are restored for all the reagents. The robot incubates the plates for 60 minutes at room temperature, and then stops the reaction by pipetting 60 μL of dowex resin suspension into the reaction mix. In order to avoid tip clogging, wide bore tips are used to dispense the resin suspension. Three cycles of mixing are done immediately after the addition of the resin. Another mixing cycle is performed after all the plates are stopped, this time using normal tips: the plates are then allowed to rest for about one hour in order to allow resin sedimentation. At this point, 27 μL of the supernatant are transferred into 384-Optiplates (Perkin-Elmer), with 50 μL of Microscint 40 (Perkin-Elmer); after 5 min of orbital shaking the plates are read on a Perkin-Elmer Top Count radioactivity counter.
Data are analyzed by an internally customized version of the SW package “Assay Explorer” that provides sigmoidal fitting of the ten-dilutions curves for IC50 determination in the secondary assays/hit confirmation routines.

T1 sequence (O60674 849-1124 limits assumed): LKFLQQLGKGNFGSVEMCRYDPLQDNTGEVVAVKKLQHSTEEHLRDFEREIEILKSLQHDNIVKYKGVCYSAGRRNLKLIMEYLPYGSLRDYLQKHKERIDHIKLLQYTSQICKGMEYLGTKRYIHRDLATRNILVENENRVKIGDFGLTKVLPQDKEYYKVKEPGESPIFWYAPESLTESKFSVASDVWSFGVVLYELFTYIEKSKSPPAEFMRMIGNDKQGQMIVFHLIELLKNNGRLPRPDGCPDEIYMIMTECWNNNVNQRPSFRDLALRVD

IC50 ([2]; SET-2 cells, 72 hours) [nM] | Ratio K-562 (IC50)/SET-2 (IC50) [2] | Compound | IC50 [1] [nM] | IC50 (JAK2 kinase domain) [nM] | IC50 ([2]; SET-2, 72 h) [nM]
– | – | Cc1ccc(Cl)cc1-c1[nH]c(-c2ccnc(N)n2)cc1C(N)=O [Ref. cmpd. (F25), 5-(2-amino-pyrimidin-4-yl)-2-(5-chloro-2-methyl-phenyl)-1H-pyrrole-3-carboxamide, reference compound] | 2000 | – | 430
610 | >16 | CCNC(=O)c1cc(-c2ccnc(N)n2)[nH]c1-c1cc(Cl)ccc1CC [Cmpd. 36, 5-(2-Aminopyrimidin-4-yl)-2-(5-chloro-2-ethylphenyl)-N-ethyl-1H-pyrrole-3-carboxamide] | > 10000 | 13 | –
490 | >20 | CCc1ccc(Cl)cc1-c1[nH]c(-c2ccnc(N)n2)cc1C(=O)NC [Cmpd. 35, 5-(2-Aminopyrimidin-4-yl)-2-(5-chloro-2-ethylphenyl)-N-methyl-1H-pyrrole-3-carboxamide] | > 10000 | 9 | –
630 | >16 | CNC(=O)c1cc(-c2ccnc(N)n2)[nH]c1-c1cc(C(F)(F)F)ccc1Cl [Cmpd. 39, 5-(2-Aminopyrimidin-4-yl)-2-[2-chloro-5-(trifluoromethyl)phenyl]-N-methyl-1H-pyrrole-3-carboxamide] | > 10000 | – | –
310 | >20 | CCc1ccc(C(F)(F)F)cc1-c1[nH]c(-c2ccnc(N)n2)cc1C(=O)NC [Cmpd. 51, 5-(2-Aminopyrimidin-4-yl)-2-[2-ethyl-5-(trifluoromethyl)phenyl]-N-methyl-1H-pyrrole-3-carboxamide] | > 10000 | 2 | –
– | – | CCc1ccc(Cl)cc1-c1[nH]c(-c2ccnc(N)n2)cc1C(N)=O [Cmpd. 5, 5-(2-Aminopyrimidin-4-yl)-2-(5-chloro-2-ethylphenyl)-1H-pyrrole-3-carboxamide] | 5320 | – | 210
– | – | CNc1nccc(-c2cc(C(N)=O)c(-c3cc(Cl)ccc3C)[nH]2)n1 [Cmpd. 42, 2-(5-Chloro-2-methylphenyl)-5-[2-(methylamino)pyrimidin-4-yl]-1H-pyrrole-3-carboxamide] | > 10000 | – | –

Compound | IC50 ([2]; SET-2 cells, 72 hours) [nM] | Ratio K-562 (IC50)/SET-2 (IC50) [2] | IC50 [1] [nM] | IC50 (JAK2 kinase domain) [nM] | IC50 ([2]; SET-2, 72 h) [nM]
NC(=O)c1cc(-c2ccnc(N)n2)[nH]c1-c1cc(Cl)ccc1Cl [Cmpd. 2, 5-(2-Aminopyrimidin-4-yl)-2-(2,5-dichlorophenyl)-1H-pyrrole-3-carboxamide] | 700 | 9.8 | 6860 | 12 | –
NC(=O)c1cc(-c2ccnc(N)n2)[nH]c1-c1cc(C(F)(F)F)ccc1Cl [Cmpd. 1, 5-(2-Aminopyrimidin-4-yl)-2-[2-chloro-5-(trifluoromethyl)phenyl]-1H-pyrrole-3-carboxamide] | 570 | 13 | 7500 | 8 | –
CCc1ccc(C(F)(F)F)cc1-c1[nH]c(-c2ccnc(N)n2)cc1C(N)=O [Cmpd. 16, 5-(2-Aminopyrimidin-4-yl)-2-[2-ethyl-5-(trifluoromethyl)phenyl]-1H-pyrrole-3-carboxamide] | 390 | 9.43 | 3680 | 2 | –
